According to patent publication US5229364A, “Polypeptides derived from the human immunodeficiency virus endonuclease protein” (priority 1991, dated 1993):

Tests used:
[1] = system: HIV-1 antibody positive sera; experiment: Peptide ELISA with HIV-1 antibody positive sera; type: binding, human; conditions: 33 HIV-1 antibody positive sera diluted 1/100; peptide 1 μg/well; absorbance 490 nm; positive = above mean of negative sera plus three S.D.
Procedure: FIG. 1 illustrates the reactivity of sera from HIV-1 infected and non-infected individuals to selected HIV-1 endonuclease peptides. Thirty-three HIV-1 antibody positive sera (filled symbols) and fourteen control sera (open symbols) were analyzed in ELISA with peptides representing the HIV-1 endonuclease protein (6). Amino acid sequences were derived from the HIV-1 consensus sequence and are shown at the bottom of the picture (abscissa). Uppercase letters indicate consensus amino acids, whereas less conserved amino acids are indicated with lowercase letters. Absorbance values at 490 nm are indicated in the ordinate. Three of the sera belonged to infected individuals classified as CDC 1 (7), thirteen to CDCII, seven to CDC III and ten to CDC IV. Becaused reactivity to other regions than the one represented by End 10 was very low, only results of a selected number of peptides is shown in the figure. FIG. 2 illustrates the reactivity of HIV-1 antobidy positive and control sera to an End 10 set of 18 glycine (G) substitution peptides. Filled symbols show mean optical density for 13 antibody positive sera. The corresponding values for four negative sera are shown by open symbols. Vertical bars represent standard deviation values. The mean reactivity to intact peptide End 10 was chosen to represent 100% of activity and reactivity to the substituted peptides is expressed in relation to this. […]

[2] = system: sera obtained from HIV-2 infected individuals; experiment: Peptide ELISA with sera from HIV-2 infected individuals; type: binding, human; conditions: data not shown
Procedure: The peptide ELISA was performed as follows. Microtiter plate wells (Linbro, Flow, Scotland) were coated with peptide (1 μg/well) resuspended in 0.01 M carbonate buffer at room temperature overnight. Thereafter, the plates wells were blocked with 5% bovine serum albumin. 100 μl of reagents were used per well. Five washings (0.9% NaCl and 0.005% Tween 20 in distilled water) were performed between the different steps of the ELISA procedure. Positive sera and controls were diluted 1/100 and incubated in the plates for one hour at 37° C. Peroxidase conjugated immunoglobulins to human IgG y-chains (Dakopatts; Denmark) diluted 1/2000 were added (1 hour, 37° C.). 1,2 phenylene diaminedihydrochloride was used as substrate. The reaction was allowed to continue for ten minutes and then stopped with 3 M H2 SO4. […] The mean optic density plus three times S.D. for peptide End 10 was 0.8.
The corresponding region in the genome of HIV-2 (Table 1) and simian immunodeficiency virus (SIV) is also very conserved. […] Some amino-acid stretches are, however, completely conserved among the different serotypes. Because of this observation, the HIV-1 peptide End 10 was also tested with 30 sera obtained from HIV-2 infected individuals.

Sequence: ETGQETAYFLLKLAGRWPVK [End 10, 20-residue peptide of HIV-1 endonuclease, starting at position 655 of the pol consensus]
- reactivity in ELISA with HIV-1 antibody positive sera [1]: reacted strongly
- intensity of the reactions with HIV-2 sera relative to HIV-1 sera ([2]; 30 HIV-2 sera): comparable
- reactivity in ELISA with HIV-2 sera ([2]; 30 sera from HIV-2 infected individuals): reacted strongly
